Assay [1] relates to hGLP-1R. Nature of the assay: Ligand-induced cAMP production (BRET) in mouse MIN6 β-cells. The settings on record: Fig. 1e, in words. It is filed as cell-based, human. The method, then:
(§1) HEK293T cells (700,000 per well) were seeded in six-well plates and incubated to 70% confluency in DMEM (10% FBS, 1% Pen/Strep). Twenty-four hours following seeding, transient transfections were performed using Lipofectamine 2000 (catalogue no. 11668019, Invitrogen) according to the manufacturer’s protocol without including additional transformation carrier DNA.
Twenty-four hours following transfection, HEK293T cells or MIN6 cells were washed with PBS and resuspended in FluoroBrite phenol red-free complete media (catalogue no. A1896701, Life Technologies) containing 5% FBS and 2 mM of L-glutamine (catalogue no. 25030081, Life Technologies). 100,000 cells per well were plated into poly-D-lysine-coated (catalogue no. P6403, Sigma-Aldrich) 96-well white polystyrene LumiNunc plates (catalogue no. 10072151, Thermo Fisher Scientific). After 24 h, the media was replaced with PBS (catalogue no. 10010056, Gibco) containing 10 μM of coelenterazine-h (catalogue no. S2011, Promega) or 1:500 dilution of NanoGlo (catalogue no. N1110, Promega). BRET measurements were taken every 30 s–2 min using a PHERAstar FS multi-mode microplate reader. […] The resulting ligand-specific ratiometric BRET signals were normalized to vehicle producing the ‘ligand-induced BRET ratio’[37], followed by an additional normalization step to well-specific baseline readings.

Assay [2] concerns the target T1, PPARγ2/RXR (Homo sapiens, UniProt P37231).
T1 construct: host or cells: HEK293T, with (A8) or without (A9) co-expressed hGLP-1R
T1 sequence (P37231 1-505): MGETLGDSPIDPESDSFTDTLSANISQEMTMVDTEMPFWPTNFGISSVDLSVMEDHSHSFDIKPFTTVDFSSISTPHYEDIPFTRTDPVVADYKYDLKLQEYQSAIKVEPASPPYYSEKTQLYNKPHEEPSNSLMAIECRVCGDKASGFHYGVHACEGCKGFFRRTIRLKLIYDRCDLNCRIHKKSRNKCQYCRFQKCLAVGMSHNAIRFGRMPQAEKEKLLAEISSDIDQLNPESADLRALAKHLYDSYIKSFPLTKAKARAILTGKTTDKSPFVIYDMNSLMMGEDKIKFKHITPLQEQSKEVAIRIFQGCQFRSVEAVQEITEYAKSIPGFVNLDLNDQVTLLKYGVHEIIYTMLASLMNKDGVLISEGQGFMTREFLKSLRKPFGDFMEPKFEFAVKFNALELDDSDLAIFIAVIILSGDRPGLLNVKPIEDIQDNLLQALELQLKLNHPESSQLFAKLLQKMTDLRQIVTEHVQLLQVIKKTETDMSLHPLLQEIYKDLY
T1 sequence (P19793 1-462 partner): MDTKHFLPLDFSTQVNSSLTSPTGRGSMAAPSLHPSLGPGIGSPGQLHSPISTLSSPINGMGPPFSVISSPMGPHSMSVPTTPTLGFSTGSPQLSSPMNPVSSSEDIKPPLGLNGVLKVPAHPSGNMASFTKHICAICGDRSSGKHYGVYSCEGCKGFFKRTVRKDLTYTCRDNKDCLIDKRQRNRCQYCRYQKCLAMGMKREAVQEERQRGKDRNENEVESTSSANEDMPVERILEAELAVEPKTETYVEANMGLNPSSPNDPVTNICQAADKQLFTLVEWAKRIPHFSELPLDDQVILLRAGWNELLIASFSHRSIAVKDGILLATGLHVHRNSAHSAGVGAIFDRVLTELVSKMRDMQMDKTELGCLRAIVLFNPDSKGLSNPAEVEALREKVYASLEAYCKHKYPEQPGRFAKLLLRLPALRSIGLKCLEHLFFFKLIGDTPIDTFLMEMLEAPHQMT
Nature of the assay: RXR-Rluc8 / PPARγ2-YFP heterodimerization (BRET) in hGLP-1R(−) HEK293T cells. The class given is cell-based. The settings on record: GLP-1R (-), 1μM. The method, then: as §1
Twenty-four hours following transfection, HEK293T cells or MIN6 cells were washed with PBS and resuspended in FluoroBrite phenol red-free complete media (catalogue no. A1896701, Life Technologies) containing 5% FBS and 2 mM of L-glutamine (catalogue no. 25030081, Life Technologies). 100,000 cells per well were plated into poly-D-lysine-coated (catalogue no. P6403, Sigma-Aldrich) 96-well white polystyrene LumiNunc plates (catalogue no. 10072151, Thermo Fisher Scientific). After 24 h, the media was replaced with PBS (catalogue no. 10010056, Gibco) containing 10 μM of coelenterazine-h (catalogue no. S2011, Promega) or 1:500 dilution of NanoGlo (catalogue no. N1110, Promega). BRET measurements were taken every 30 s–2 min using a PHERAstar FS multi-mode microplate reader. Baseline measurements were taken after an initial 5 min of incubation with coelenterazine-h or NanoGlo-containing PBS after which cells were then treated with either vehicle (PBS) or respective ligands. The resulting ligand-specific ratiometric BRET signals were normalized to vehicle producing the ‘ligand-induced BRET ratio’[37], followed by an additional normalization step to well-specific baseline readings. Ligand-induced measurements on the temporal scale is represented as the subsequent measurement after time point zero. Positive or negative incremental AUC (+iAUC/−iAUC) were calculated where noted. Each experiment was independently performed at least three times, each with at least three technical replicates for each group.
Untagged hGLP-1R was purchased from Sino Biological Inc. (catalogue no. HG13944-UT), hGLP-1R-GFP was a kind gift from D. Hodson (University of Birmingham), and hGLP-1R-Rluc8 was a kind gift from P. Sexton (Monash University, Melbourne, Australia). Gαs recruitment to the GLP-1R-GFP was quantified using mini-Gαs, a protein probe that translocates to ligand-bound Gαs-coupled G-protein coupled receptors. NES-Nluc-MiniGαs was a gift from K. Pfleger (Harry Perkins Institute of Medical Research, Nedlands, Western Australia, Australia). Intracellular cAMP was measured using the YFP-Epac-Rluc CAMYEL sensor[39]. hGLP-1R-RLUC8 internalization was quantified using the intracellular plasma membrane marker Venus-KRAS[40]. […] GLP-1R-Rluc8 lysosomal colocalization was measured using Lamp1-mNeonGreen. […] Time-dependent RXR/PPARγ heterodimerization was measured using RXR-Rluc8 and PPARγ2-YFP, both of which were kind gifts from V. Ollendorf[41].

Take `CCO[C@@H](Cc1ccc(OCCc2ccc(OS(C)(=O)=O)cc2)cc1)C(=O)O` [tesaglitazar, (S)-2-ethoxy-3-(4-(4-((methylsulfonyl)oxy)phenethoxy)phenyl) propanoic acid]: in assay [1], the cAMP production entry was “had no effect”. Besides, the “RXR/PPARγ Heterodimerization (AUC), +iAUC” value in assay [2] (replicate 1) was determined as 59.69; in assay [2] (replicate 2) it was 107.20; in assay [2] (replicate 3), 71.87; in assay [2] (replicate 4), 114.00.

Values taken from publication PMC9398908, “GLP-1-mediated delivery of tesaglitazar improves obesity and glucose metabolism in male mice” (Nature Metabolism, 2022).
